In patent US20250346585A1 (Alexion Pharmaceuticals, Inc., priority 2022, published 2025):

biological target: Human complement C1s enzyme (Homo sapiens (Human), UniProt P09871); assay: Human C1s enzyme assay; type: biochemical; conditions: Human C1s enzyme assay of Example 3; read-out: IC50 (Stars)
Summary of the method: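 IC50 derived by nonlinear regression of rate versus concentration, with rate taken from A405 kinetics (30 s intervals, 30 min) after adding 100 μM each Z-L-Lys-SBzl and DTNB. C1s from human serum, 1.16 nM, exposed to compound for 5 min at RT beforehand; buffer 50 mM Tris, 1 M NaCl, pH 7.5.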

Sequence of Human complement C1s enzyme (P09871 438-688 limits assumed): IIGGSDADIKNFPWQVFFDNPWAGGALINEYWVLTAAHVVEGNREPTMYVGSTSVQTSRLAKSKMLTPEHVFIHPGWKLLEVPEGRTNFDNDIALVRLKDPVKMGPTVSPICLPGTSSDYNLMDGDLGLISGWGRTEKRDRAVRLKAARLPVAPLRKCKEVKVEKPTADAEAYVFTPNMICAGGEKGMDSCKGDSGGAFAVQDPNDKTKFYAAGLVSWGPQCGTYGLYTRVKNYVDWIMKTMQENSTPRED
Sequence of Human complement C1s enzyme (P09871 16-437 partner limits assumed): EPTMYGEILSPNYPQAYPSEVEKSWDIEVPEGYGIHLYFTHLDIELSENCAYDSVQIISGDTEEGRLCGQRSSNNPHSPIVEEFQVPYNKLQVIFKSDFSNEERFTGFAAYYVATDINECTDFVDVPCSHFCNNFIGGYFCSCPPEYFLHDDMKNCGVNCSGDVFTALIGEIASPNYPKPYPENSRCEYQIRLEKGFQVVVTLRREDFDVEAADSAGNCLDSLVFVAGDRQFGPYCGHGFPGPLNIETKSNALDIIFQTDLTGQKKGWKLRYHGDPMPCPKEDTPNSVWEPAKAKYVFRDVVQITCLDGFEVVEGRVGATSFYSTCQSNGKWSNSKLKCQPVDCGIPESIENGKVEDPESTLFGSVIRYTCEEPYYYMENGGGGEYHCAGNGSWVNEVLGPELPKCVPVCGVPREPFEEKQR

IC50 | Compound
> 1000 nM | C[C@@H](NC(=O)[C@@H]1CC2(CN1C(=O)CNC(=O)c1ccc3c(c1)-c1ccccc1C3(F)F)OCCO2)c1cc(-c2cncnc2)cs1 [Compound 91, (S)-7-((9,9-difluoro-9H-fluorene-3-carbonyl)glycyl)-N—((R)-1-(4-(pyrimidin-5-yl)thiophen-2-yl)ethyl)-1,4-dioxa-7-azaspiro[4.4]nonane-8-carboxamide]
< 100 nM | C[C@@H](NC(=O)[C@@H]1CC2(CN1C(=O)CNC(=O)c1ccc(-c3ccc(F)cc3Cl)cc1)OCCO2)c1cc(C(=N)N)cs1 [Compound 176, (S)—N—((R)-1-(4-carbamimidoylthiophen-2-yl)ethyl)-7-((2′-chloro-4′-fluoro-[1,1′-biphenyl]-4-carbonyl)glycyl)-1,4-dioxa-7-azaspiro[4.4]nonane-8-carboxamide]
< 100 nM | C[C@@H](NC(=O)[C@@H]1CC2(CN1C(=O)CNC(=O)c1ccc(C(F)(F)c3ccccc3)cc1)OCCO2)c1cc(C(=N)N)cs1 [Compound 82, (S)—N—((R)-1-(4-carbamimidoylthiophen-2-yl)ethyl)-7-((4-(difluoro(phenyl)methyl)benzoyl)glycyl)-1,4-dioxa-7-azaspiro[4.4]nonane-8-carboxamide]
< 100 nM | C[C@@H](NC(=O)[C@@H]1C[C@](F)(CN)CN1C(=O)CNC(=O)c1ccc2c(c1)-c1ccccc1C2(F)F)c1cc(C(=N)N)cs1 [Compound 35, (2S,4S)-4-(aminomethyl)-N—((R)-1-(4-carbamimidoylthiophen-2-yl)ethyl)-1-((9,9-difluoro-9H-fluorene-3-carbonyl)glycyl)-4-fluoropyrrolidine-2-carboxamide]
< 100 nM | Cc1ccc(Oc2ccc(C(=O)NCC(=O)N3[C@H]4C[C@@]4(C)C[C@H]3C(=O)N[C@H](C)c3cc(C(=N)N)cs3)cc2C)cc1 [Compound 25, (1S,3S,5S)—N—((R)-1-(4-carbamimidoylthiophen-2-yl)ethyl)-5-methyl-2-((3-methyl-4-(p-tolyloxy)benzoyl)glycyl)-2-azabicyclo[3.1.]hexane-3-carboxamide]
< 100 nM | C[C@@]12C[C@@H]1N(C(=O)CNC(=O)c1ccc3c(c1)CCCO3)[C@H](C(=O)NCc1cc(C(=N)N)cs1)C2 [Compound 1, (1S,3S,5S)—N-((4-carbamimidoylthiophen-2-yl)methyl)-2-((chromane-6-carbonyl)glycyl)-5-methyl-2-azabicyclo[3.1.0]hexane-3-carboxamide]
< 100 nM | COC[C@@]12C[C@@H]1N(C(=O)CNC(=O)c1ccc(Oc3ccc(F)cc3)cc1)[C@H](C(=O)N[C@H](C)c1cc(C(=N)N)cs1)C2 [Compound 44, (1S,3S,5R)—N—((R)-1-(4-carbamimidoylthiophen-2-yl)ethyl)-2-((4-(4-fluorophenoxy)benzoyl)glycyl)-5-(methoxymethyl)-2-azabicyclo[3.1.0]hexane-3-carboxamide]
< 100 nM | N=C(N)c1csc(CNC(=O)[C@@H]2CC3(CN2C(=O)CNC(=O)c2cccc(-c4ccccc4)n2)OCCO3)c1 [Compound 146, (S)—N-((4-carbamimidoylthiophen-2-yl)methyl)-7-((6-phenylpicolinoyl)glycyl)-1,4-dioxa-7-azaspiro[4.4]nonane-8-carboxamide]
< 100 nM | CC(NC(=O)[C@@H]1CC2(CN1C(=O)CNC(=O)c1ccc(-c3ccc(Cl)cn3)cc1)OCCO2)c1cc(C(=N)N)cs1 (stereo in doubt) [Compound 151, (S)—N—((S)-1-(4-carbamimidoylthiophen-2-yl)ethyl)-7-((4-(5-chloropyridin-2-yl)benzoyl)glycyl)-1,4-dioxa-7-azaspiro[4.4]nonane-8-carboxamide]
< 100 nM | C[C@@H](NC(=O)[C@@H]1C[C@]2(C)C[C@@H]2N1C(=O)CNC(=O)c1ccc(Oc2ccc(F)cc2)cc1)c1cc(C(=N)N)cs1 [Compound 16, (1S,3S,5S)—N-[(1R)-1-(4-carbamimidoylthiophen-2-yl)ethyl]-2-(2-{[4-(4-fluorophenoxy)phenyl]formamido}acetyl)-5-methyl-2-azabicyclo[3.1.0]hexane-3-carboxamide]
> 1000 nM | C[C@@H](NC(=O)[C@@H]1CC2(CN1C(=O)CNC(=O)c1ccc3c(c1)-c1ccccc1C3(F)F)OCCO2)c1cc(-c2nn[nH]n2)cs1 [Compound 92, (S)—N—((R)-1-(4-(2H-tetrazol-5-yl)thiophen-2-yl)ethyl)-7-((9,9-difluoro-9H-fluorene-3-carbonyl)glycyl)-1,4-dioxa-7-azaspiro[4.4]nonane-8-carboxamide]
> 1000 nM | C[C@@H](NC(=O)[C@@H]1CC2(CN1C(=O)CNC(=O)c1ccc3c(c1)-c1ccccc1C3(F)F)OCCO2)c1cc(-c2cn[nH]n2)cs1 [Compound 152, (S)—N—((R)-1-(4-(2H-1,2,3-triazol-4-yl)thiophen-2-yl)ethyl)-7-((9,9-difluoro-9H-fluorene-3-carbonyl)glycyl)-1,4-dioxa-7-azaspiro[4.4]nonane-8-carboxamide]
< 100 nM | Cc1ccc(Oc2ccc(C(=O)NCC(=O)N3C[C@H](OC(F)F)C[C@H]3C(=O)N[C@H](C)c3cc(C(=N)N)cs3)cc2)cc1 [Compound 6, (2S,4R)—N—((R)-1-(4-carbamimidoylthiophen-2-yl)ethyl)-4-(difluoromethoxy)-1-((4-(p-tolyloxy)benzoyl)glycyl)pyrrolidine-2-carboxamide]
< 100 nM | C[C@@H](NC(=O)[C@@H]1CC2(CN1C(=O)CNC(=O)c1ccc(-c3ccc(F)cc3F)cc1)OCCO2)c1cc(C(=N)N)cs1 [Compound 158, (S)—N—((R)-1-(4-carbamimidoylthiophen-2-yl)ethyl)-7-((2′,4′-difluoro-[1,1′-biphenyl]-4-carbonyl)glycyl)-1,4-dioxa-7-azaspiro[4.4]nonane-8-carboxamide]

same assay, conditions: Human complement C1s enzyme 1.16 nM, substrate Z-L-Lys-SBzl 100 μM, assay of Example 3; read-out: IC50 (Stars)

IC50 | Compound
< 100 nM | C[C@@H](NC(=O)[C@@H]1C[C@](F)(CF)CN1C(=O)CNC(=O)c1ccc2sc3ccccc3c2c1)c1cc(C(=N)N)cs1 [Compound 354, (2S,4R)—N—((R)-1-(4-carbamimidoylthiophen-2-yl)ethyl)-1-((dibenzo[b,d]thiophene-2-carbonyl)glycyl)-4-fluoro-4-(fluoromethyl)pyrrolidine-2-carboxamide]
< 100 nM | CO[C@@H]1C[C@@H](C(=O)N[C@H](CO)c2cc(C(=N)N)cs2)N(C(=O)CNC(=O)c2ccc3c(c2)-c2ccccc2C3(C)C)C1 [Compound 395, (2S,4R)—N—((R)-1-(4-carbamimidoylthiophen-2-yl)-2-hydroxyethyl)-1-((9,9-dimethyl-9H-fluorene-3-carbonyl)glycyl)-4-methoxypyrrolidine-2-carboxamide]
< 100 nM | N=C(N)c1csc(CNC(=O)[C@@H]2CC3(CN2C(=O)CNC(=O)c2ccc(-c4ccc(F)c(F)c4)cc2)OCCO3)c1 [Compound 207, (S)—N-((4-carbamimidoylthiophen-2-yl)methyl)-7-((3′,4′-difluoro-[1,1′-biphenyl]-4-carbonyl)glycyl)-1,4-dioxa-7-azaspiro[4.4]nonane-8-carboxamide]
< 100 nM | N=C(N)c1csc(CNC(=O)[C@@H]2CC3(CN2C(=O)CNC(=O)c2ccc(-c4cnn(Cc5ccccc5)c4)cc2)OCCO3)c1 [Compound 198, (S)-7-((4-(1-benzyl-1H-pyrazol-4-yl)benzoyl)glycyl)-N-((4-carbamimidoylthiophen-2-yl)methyl)-1,4-dioxa-7-azaspiro[4.4]nonane-8-carboxamide]
< 100 nM | N=C(N)c1csc(CNC(=O)[C@@H]2CC3(CN2C(=O)CNC(=O)c2ccc(-c4ccc(F)cc4)o2)OCCO3)c1 [Compound 299, (S)—N-((4-carbamimidoylthiophen-2-yl)methyl)-7-((5-(4-fluorophenyl)furan-2-carbonyl)glycyl)-1,4-dioxa-7-azaspiro[4.4]nonane-8-carboxamide]
> 1000 nM | CS(=O)(=O)N(c1csc(CNC(=O)[C@@H]2CC3(CN2C(=O)CNC(=O)c2ccc(Oc4ccc(F)cc4)cc2)OCCO3)c1)S(C)(=O)=O [Compound 286, (S)-7-((4-(4-fluorophenoxy)benzoyl)glycyl)-N-((4-((N-(methylsulfonyl)methyl)sulfonamido)thiophen-2-yl)methyl)-1,4-dioxa-7-azaspiro[4.4]nonane-8-carboxamide]
< 100 nM | C[C@@H](NC(=O)[C@@H]1C[C@@H](S(C)(=O)=O)CN1C(=O)CNC(=O)c1ccc2c(c1)oc1ccccc12)c1cc(C(=N)N)cs1 [Compound 379, (2S,4R)—N—((R)-1-(4-carbamimidoylthiophen-2-yl)ethyl)-1-((dibenzo[b,d]furan-3-carbonyl)glycyl)-4-(methylsulfonyl)pyrrolidine-2-carboxamide]
< 100 nM | C[C@@H](NC(=O)[C@@H]1C[C@@H](OC(F)F)CN1C(=O)CNC(=O)c1ccc2c(c1)S(=O)(=O)c1ccccc1-2)c1cc(C(=N)N)cs1 [Compound 362, (2S,4R)—N—((R)-1-(4-carbamimidoylthiophen-2-yl)ethyl)-4-(difluoromethoxy)-1-((5,5-dioxidodibenzo[b,d]thiophene-3-carbonyl)glycyl) pyrrolidine-2-carboxamide]
> 1000 nM | N=C(N)c1csc(CNC(=O)[C@@H]2CC3(CN2C(=O)CN2CCc4cc(-c5ccc(F)cc5)ccc4C2=O)OCCO3)c1 [Compound 255, (S)—N-((4-carbamimidoylthiophen-2-yl)methyl)-7-(2-(6-(4-fluorophenyl)-1-oxo-3,4-dihydroisoquinolin-2(1H)-yl)acetyl)-1,4-dioxa-7-azaspiro[4.4]nonane-8-carboxamide]
< 100 nM | C[C@@H](NC(=O)[C@@H]1C[C@@H](S(C)(=O)=O)CN1C(=O)CNC(=O)c1cccc(-c2ccc(F)cc2)c1)c1cc(C(=N)N)cs1 [Compound 334, (2S,4R)—N—((R)-1-(4-carbamimidoylthiophen-2-yl)ethyl)-1-((4′-fluoro-[1,1′-biphenyl]-3-carbonyl)glycyl)-4-(methylsulfonyl)pyrrolidine-2-carboxamide]
